The test system of series [1] is TWEAK-Fn14 signalling pathway, BRV5 cells. In words: Cell-based screening of individual peptides, gene expression microarray in TWEAK-stimulated BRV5 cells. Further details: species or system human. The settings on record: 6 h; for BIRC2 mRNA expression (normalized to NARS2) / HSP90B1 mRNA expression (normalized to NARS2) / IL6 mRNA expression (normalized to NARS2) / JUN mRNA expression (normalized to NARS2) / MAP4K4 mRNA expression (normalized to NARS2) / MAPK14 mRNA expression (normalized to NARS2) / NFKB2 mRNA expression (normalized to NARS2) / TNFRSF12A mRNA expression (normalized to NARS2) / TRAF2 mRNA expression (normalized to NARS2): 450 µM. The source says: Pool 1 and 5 were therefore deconstructed to assess the effect of individual peptides and their activity on same cell-based screening. Pools 1 and 5 were composed of peptides 45, 46, 42, 3, 49, 11, and 13; and of peptides 1, 9, 30, 35, 41, 43, 7, and 14, respectively. As before, and shown in Figure 4B, the level of expression of probe genes on TWEAK-stimulated (T) BRV5 cells is overall higher than on non-stimulated (NT) one. […] The structural model of peptides 43, 30, 35 and 49 bound to TWEAK can be seen in Figure 5 and Supplementary Materials Figures S4–S6, respectively.
Three different cell lines were used in this study: BRV5, MDA-MB 435 (435-P), and HT29. The BRV5 is a highly metastatic brain cell line, obtained in one of our laboratories by primary culture from a brain of a nude mouse inoculated with human 435-Br1 brain metastatic cells, as previously described and used as a model to test the peptides in cell cultures. […] The triple negative 435-P cell line is a useful human breast cancer model that expresses both epithelial and melanocytic markers, and was included as the parental cell from which 435-Br1 metastatic variant was initially originated (both cell lines kindly provided by Dr Fabra at IDIBELL Institute, Hospitalet de Llobregat, Spain). Finally, HT29 human colon carcinoma cells obtained from the European Type Culture Collection (ECACC 91072201) were used as a positive control of TWEAK dependent Fn14 over-expressing cells to evaluate TWEAK-Fn14 axis of brain metastatic variants.
Appropriate cell culture conditions were established as the controls needed in the expression of genes with and without peptides and with and without TWEAK activation, both as pools and individually (see Supplementary Materials Figure S2). The protocol started with the seeding of 125,000 cells/well in 500 µL of culture media supplemented with 10% fetal bovine serum (CM+FBS10%) in 24-well dishes for 24 h before removing FBS (CM-FBS). After overnight starvation in CM-FBS culture, different peptide treatment conditions (at final concentration of 450 µM) were established in the presence or absence of TWEAK (25 ng/mL final concentration) (Peprotech EC, Ltd., London, UK). Some cells were treated with peptides at a single, unique, initial dose (time 0) while other were treated with repeated doses to account for the effect cell-culture degradation. These include a repeated treatment every hour (i.e., […]), every two hours (time 0, 2, and 4) and every three hours (time 0 and 3)—see Supplementary Materials Figure S2 for diagrammatic depiction. At time 6 (after six hours) cells were lysed and RNA extracted for transcriptomic analyses (see next). Cell were culture for six hours as this was the time needed to achieve the highest upregulation of the TWEAK-Fn14 axis upon TWEAK treatment as shown in previous time-course RT-PCR experiments (see Figure 2).
RNA from cells was extracted 6 h after treatments by direct lysis on the well. The RNeasy Micro kit (Qiagen, Hilden, Germany) was used to isolate total RNA from cell lysate following manufacturer’s protocols including an additional step of digestion with DNase I (Qiagen, Hilden, Germany). Total RNA concentration was measured in a NanoDrop 1000 spectrophotometer (Thermo Scientific, Waltham, MA, USA). The RNA extracted from treated and untreated cells (see above) was used as a proxy for gene expression.
The quantitative RT-PCR was performed using Fluidigm Dynamic Array FlexSix array with the specific primers for gene expression (Delta Genes Assays, Wet lab tested on Dynamic Array IFC) designed to RefSeq for detection by pPCR EvaGreen assay (Dynamic Array FlexSix, Fluidigm Corporation). Each Flex Six IFC has a total of six independent partitions. Each partition has a 12 × 12 format (12 assay inlets and 12 sample inlets) and will be run independently as a separate experimental run. […]

The nature of series [2]: Precipitation in SPR running buffer. The settings on record: running buffer HBS-EP pH 7.4, 6.25 µM to 800 µM, 25 °C. The series is classed as physicochemical. Here is the method: (§1) After chip validation, peptides selected on our cell-based microarray screening were tested.
Binding assays were performed at 25 °C in a Biacore 3000 instrument (GE Healthcare, Uppsala, Sweden) using nitrilotriacetic (NTA) sensor chips (GE Healthcare) and HBS-EP (0.01 M HEPES pH 7.4, 0.15 M NaCl, 3 mM EDTA, 0.005 % v/v Surfactant P20) as running buffer. Histidine-tagged human TWEAK (His6-TWEAK) protein (R&D Systems, Minneapolis, MN, USA) was covalently immobilized on the sensor surface using a capture coupling method. Briefly, the NTA surface was first stabilized by injection of regeneration buffer (20 μL EDTA-containing running buffer at 20 μL/min) followed by Ni^2+ binding to the surface (40 μL of 500 μM NiCl2 in running buffer at 20 μL/min). The carboxymethyl dextran surface was then activated for primary amine coupling by injecting coupling solution (30 μL of a 1:1 N-hydroxysuccinimide (NHS)/1-ethyl-3-[3-(dimethylamino)-propyl]carbodiimide hydrochloride (EDC) mixture at 5 μL/min). […]
Binding experiments using a monoclonal anti-TWEAK antibody (Abcam ref. 199405, Cambridge, UK) were run to ascertain adequate functionalization of the immobilized surface. […] The dissociation phase was monitored for 10 min at the same flow rate and followed by a regeneration step with 10 µL of 18 mM NaOH. […]

For the next series, the target named is T1, human His6-TWEAK protein (Homo sapiens, UniProt O43508).
T1 construct: purchased R&D Systems
T1 sequence (O43508 97-249 limits assumed): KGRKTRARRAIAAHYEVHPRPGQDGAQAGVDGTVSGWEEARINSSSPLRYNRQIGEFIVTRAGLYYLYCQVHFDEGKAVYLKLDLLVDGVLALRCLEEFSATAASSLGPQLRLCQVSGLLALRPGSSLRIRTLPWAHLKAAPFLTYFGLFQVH
As to the kind of experiment: SPR binding of peptides to immobilized His6-TWEAK. The settings on record: 25 °C, 1:1 Langmuir global fit, representative of at least three independent experiments; for kon: HBS-EP pH 7.4, Biacore 3000, NTA chip, read-out: ka; for Kd: figure 6, HBS-EP pH 7.4, 6.25 µM to 800 µM peptide.
Excerpt: SPR biosensor interaction analysis, a label-free screening approach, was used for real-time monitoring of the kinetics and affinity of peptide hits to TWEAK previously identified by cell-based screening. Peptides from pools 1 and 5 were selected both as positive (49, 30, 35 and 43) and negative hits (1 and 42). For our purposes, TWEAK was chosen as ligand, while peptides were chosen as analytes and passed across ligand-derivatized surface. Nitrilotriacetic acid-coated sensor chips (NTA chip) and a coupling approach that results in the capture of a His6-protein in a non-random orientation by the His6 epitope prior to direct free amine-based covalent coupling was used for histidine-tagged TWEAK immobilization.
as §1
For each titration, a zero-analyte surface as a control was subtracted from test sensorgram as well as non-specific binding to the blank flow cell without protein; and the chip surface was regenerated in order to remove any remaining analyte. The black curves show the experimental data, while the overlaid red lines represent a global fit of the entire data set to a 1:1 Langmurian interaction model. The fitting process provided both kinetic association and dissociation rate constants (Ka and Kd), as well as equilibrium dissociation constant (KD) values indicated in Figure 6.
Binding assays were performed at 25 °C in a Biacore 3000 instrument (GE Healthcare, Uppsala, Sweden) using nitrilotriacetic (NTA) sensor chips (GE Healthcare) and HBS-EP (0.01 M HEPES pH 7.4, 0.15 M NaCl, 3 mM EDTA, 0.005 % v/v Surfactant P20) as running buffer. Histidine-tagged human TWEAK (His6-TWEAK) protein (R&D Systems, Minneapolis, MN, USA) was covalently immobilized on the sensor surface using a capture coupling method. Briefly, the NTA surface was first stabilized by injection of regeneration buffer (20 μL EDTA-containing running buffer at 20 μL/min) followed by Ni^2+ binding to the surface (40 μL of 500 μM NiCl2 in running buffer at 20 μL/min). The carboxymethyl dextran surface was then activated for primary amine coupling by injecting coupling solution (30 μL of a 1:1 N-hydroxysuccinimide (NHS)/1-ethyl-3-[3-(dimethylamino)-propyl]carbodiimide hydrochloride (EDC) mixture at 5 μL/min). His6-TWEAK protein in pH 7.4 running buffer was then injected over the surface (60 μL of 10 μg/mL His6-TWEAK at 5 μL/min). To block uncoupled primary amines on the sensor surface, ethanolamine was passed over the surface (35 μL 1M ethanolamine at 5 μL/min). Ligand surfaces were finally conditioned with a 20 µL injection of regeneration solution containing 350 mM EDTA at 20 μL/min. Immobilization levels ranged from 1500 to 7000 resonance units (RUimmob) to test different ligand densities. A blank flow cell on the chip was created by simple injection of 20 μL of regeneration buffer injected over the sensor surface.
Binding experiments using a monoclonal anti-TWEAK antibody (Abcam ref. 199405, Cambridge, UK) were run to ascertain adequate functionalization of the immobilized surface. Selected synthetic TWEAK-Fn14 inhibitory peptides at two-fold serial dilutions from 800 µM to 0 µM in running buffer were flown over the chip for 5 min at 35 µL/min. The dissociation phase was monitored for 10 min at the same flow rate and followed by a regeneration step with 10 µL of 18 mM NaOH. Specific binding responses for each channel were obtained by double referencing; subtracting non-specific binding to the blank flow cell plus an internal reference standard, namely buffer injection response. Each sample was run in triplicate. The experimental data were fitted to a 1:1 Langmuir binding model by the BIAevaluation software version 4.1 (GE Healthcare, Uppsala, Sweden).

The mark [3] stands for this setting: individual peptides, BRV5 + TWEAK, mean of replicate columns.
[4] abbreviates: individual peptides, BRV5 + TWEAK, replicate column 1.
Where [5] appears, read: individual peptides, BRV5 + TWEAK, replicate column 2.
Where [6] appears, read: individual peptides, BRV5 + TWEAK, normalized to NARS2, listed as P30.

Several values for one entry are separate records, joined by “and”; a condition that tells them apart may be missing. Equal entries are not always repeated. No end group written: not given here.

The term Kd denotes the equilibrium constant for the complex coming apart. A higher Kd goes with a looser complex.

With 30: DNGGGNTDIYSE [Peptide 30], the “regulation of probe genes by individual peptides” value in series [1] (BRV5 + TWEAK 25 ng/mL, peptides 450 µM) is on record as “lowest overall expression across all genes”. For the same substance, in series [1] (setting [3]), the “BIRC2 mRNA expression (normalized to NARS2)” value amounted to 0.4705, the “HSP90B1 mRNA expression (normalized to NARS2)” value is reported as 1.723, the “IL6 mRNA expression (normalized to NARS2)” value came out at 0.001837 and the “JUN mRNA expression (normalized to NARS2)” value is listed as 0.05309. For the same substance, in series [1] (setting [3]), the “MAP4K4 mRNA expression (normalized to NARS2)” value turned out to be 0.1227, the “MAPK14 mRNA expression (normalized to NARS2)” value stood at 0.1367, the “NFKB2 mRNA expression (normalized to NARS2)” value was 0.02657 and the “TNFRSF12A mRNA expression (normalized to NARS2)” value is on record as 0.01074. The “TRAF2 mRNA expression (normalized to NARS2)” value in series [1] (setting [3]) is reported as 0.01042. For the same substance, in series [1] (setting [4]), the “BIRC2 mRNA expression (normalized to NARS2)” value is given as 0.46, the “HSP90B1 mRNA expression (normalized to NARS2)” value came out at 1.5246, the “IL6 mRNA expression (normalized to NARS2)” value amounted to 0.001779 and the “JUN mRNA expression (normalized to NARS2)” value was 0.05111. In addition, in series [1] (setting [4]), the “MAP4K4 mRNA expression (normalized to NARS2)” value came to 0.1133, the “MAPK14 mRNA expression (normalized to NARS2)” value came to 0.1336, the “NFKB2 mRNA expression (normalized to NARS2)” value amounted to 0.02493 and the “TNFRSF12A mRNA expression (normalized to NARS2)” value was determined as 0.00974. Further, the “TRAF2 mRNA expression (normalized to NARS2)” value in series [1] (setting [4]) is reported as 0.009779. Further, in series [1] (setting [5]), the “BIRC2 mRNA expression (normalized to NARS2)” value turned out to be 0.481, the “HSP90B1 mRNA expression (normalized to NARS2)” value is 1.9206, the “IL6 mRNA expression (normalized to NARS2)” value amounted to 0.001894 and the “JUN mRNA expression (normalized to NARS2)” value came to 0.05506. Besides, in series [1] (setting [5]), the “MAP4K4 mRNA expression (normalized to NARS2)” value is 0.1321, the “MAPK14 mRNA expression (normalized to NARS2)” value was 0.1398, the “NFKB2 mRNA expression (normalized to NARS2)” value was 0.02821 and the “TNFRSF12A mRNA expression (normalized to NARS2)” value stood at 0.01174. For the same substance, the “TRAF2 mRNA expression (normalized to NARS2)” value in series [1] (setting [5]) is on record as 0.01106. In series [1] (setting [6]), the “BIRC2 expression Z-Score” value is given as -0.6095; the “HSP90B1 expression Z-Score” value is -0.9208; the “IL6 expression Z-Score” value is -0.0450 and -0.04503; the “JUN expression Z-Score” value was -0.5095. Besides, in series [1] (setting [6]), the “MAP4K4 expression Z-Score” value is -1.5551 and -1.555; the “MAPK14 expression Z-Score” value is -1.1124 and -1.112; the “NFKB2 expression Z-Score” value is -1.3232 and -1.323; the “TNFRSF12A expression Z-Score” value is on record as -1.112. For the same substance, the “TRAF2 expression Z-Score” value in series [1] (setting [6]) was -0.4386. For the same substance, the precipitation result in series [2] was “precipitated at all concentrations tested”.
Take SYTDVQDS-NH2 [Peptide 49]: at human His6-TWEAK protein, the kon was found to be 4.88 M⁻¹ s⁻¹ and the Kd came out at 533 µM.
On the same counts, the results for TTDGSTGDDLQA-NH2 [Peptide 43] are 20.5 M⁻¹ s⁻¹ and 173 µM.

The values are drawn from publication PMC7866087, “Evaluation of Computationally Designed Peptides against TWEAK, a Cytokine of the Tumour Necrosis Factor Ligand Family” (International Journal of Molecular Sciences, 2021).
